Where “and” joins values, the source holds several entries; their conditions need not be identical. Equal entries are not always repeated.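 Protocol summary: plate cells (96-well), add compound at 5 concentrations, incubate 48 h, interpolate endpoints linearly. GI50 marks 50% less growth. TGI: concentration producing complete growth inhibition.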
Tested on: MDA-MB-468 breast
Experiment: NCI tumour cell line growth inhibition, 48 h

Compound | GI50 | TGI
N#Cc1c(-c2cccs2)cc(-c2cnccn2)nc1SCC(=O)N/N=C/c1ccccc1 | 3.9 µM | 13.9 µM
Nc1nc2n[nH]nc2c(=O)[nH]1 | 0.0817 µM | 0.792 µM
CCCCCCCCCCC(C(O)c1ccccc1)N1CCCCC1 (configuration not stated) | 1.58 µM | 3.09 µM
COc1ccc(/C(=N\O)c2cc(C)c(OC)c(C)c2)cc1O | 0.0146 µM | > 100 µM
COc1ccc(NC(=O)COCCOCCNC[C@@H]2C(=O)O[C@H]3[C@H]2CC/C(COC(=O)OC/C2=C/CC[C@@]4(C)O[C@H]4[C@H]4OC(=O)[C@@H](CN(C)C)[C@@H]4CC2)=C\CC[C@@]2(C)O[C@@H]32)c(O)c1C(N)=O | 3.04 µM | 10.8 µM
COc1cc(/C=C/C(=O)c2c(C)nc3ccccc3c2/C=C/c2ccc(C)cc2)cc(OC)c1OC | 1.88 µM | 4.26 µM
O=C(c1ccccc1)C(Br)C(Br)c1cccc([N+](=O)[O-])c1 (configuration not stated) | 1.47 µM | 3.08 µM
COc1cccc(OCCCN)c1-c1cc(Nc2cnc(C#N)cn2)n[nH]1 | 0.0407 µM | 2.04 µM
O=C1C=CC[C@H](/C=C/c2ccccc2)O1 | 1.94 µM | 11.5 µM
CCN1Cc2c(ccc(F)c2C#N)O[C@@H](C)CNC(=O)c2c(N)nn3ccc1nc23 | 12.5 µM | 34.3 µM
C=C1C(=O)O[C@H]2[C@H]1CCC(/C=N/c1ncc(Br)cc1N)=C\CC[C@@]1(C)O[C@@H]21 | 1.2 µM | 3.91 µM
CC1(O)CC(c2nc(-c3ccc4ccc(-c5ccccc5)nc4c3)c3c(N)nccn23)C1 (configuration not stated) | 3.02 µM and 2.9 µM | 12.8 µM and > 10 µM
O=C(Nc1ccc2[nH]c(=S)sc2c1)Nc1ccccc1F | 17.7 µM | > 100 µM
Clc1ccc2nnnn2n1 | 5.06 µM | 25.1 µM
COC(=O)CCC1CCC(c2cc(F)ccc2F)(S(=O)(=O)c2ccc(Cl)cc2)CC1 (configuration not stated) | 16.3 µM | > 100 µM
COc1cc(/C=N/NC(=O)c2cnn3c2NC(c2ccccc2)C3)ccc1Oc1ccccc1 (configuration not stated) | 0.648 µM | 5.72 µM
CCC[CH2][Sn]([CH2]CCC)([CH2]CCC)[O]C(=O)c1ccc(Cl)cc1Cl | 0.133 µM | 0.274 µM
Cc1cc(NCc2cc(Nc3ccnc4cc(Cl)ccc34)ccc2F)nc(N2CCN(C)CC2)n1 | 1.7 µM | 3.52 µM

Compound | GI50 | TGI
N#CC1=C(N)Oc2c(sc3c(Br)cccc23)C1c1ccc(Br)cc1 (configuration not stated) | 0.763 µM | 11.4 µM
Nc1nc(N)c2c(n1)NC(c1ccc(F)cc1)C1CCc3ccccc3C1=N2 (configuration not stated) | 1.43 µM | 6.7 µM
COc1cc(NC(=O)CSc2nc3ccc(C)cc3c(=O)n2Cc2ccccc2)cc(OC)c1OC | 4.11 µM | 68.1 µM
COc1cc(Cl)cc(-c2nn(-c3cccc(NC(=O)Nc4cc(C(F)(F)F)cc(C(F)(F)F)c4)c3)cc2-c2ccncc2)c1 | 0.349 µM | 3.15 µM
Oc1ccccc1CNCC12CC3CC(CC(C3)C1)C2 | 12.8 µM | 31.7 µM
COc1cccc2c1C(=O)c1c(O)c3c(c(O)c1C2=O)C[C@@](O)(C(=O)CO)C[C@@H]3O[C@H]1C[C@H](N)[C@@H](O)[C@H](C)O1 | 0.094 µM | 0.304 µM
COc1ccc(S(=O)(=O)Nc2cc(/C=C\c3cc(OC)c(OC)c(OC)c3)ccc2OC)cc1 | 0.168 µM | > 100 µM
C=C(C)[C@@H]1CC[C@]2(C)[C@H](CC=C3[C@@H]4[C@@H](C)[C@H](C)CC[C@]4(C(N)=O)CC[C@]32C)[C@@]1(C)CCC#N | 3.15 µM | 12.8 µM
CN(C)CC1C(=O)O[C@H]2[C@H]1CC/C(COC(=O)c1cc3ccccc3[nH]1)=C\CC[C@@]1(C)O[C@@H]21 (some centres not stated) | 1.44 µM | 3.14 µM
COc1cc2c(cc1OCCCCCOc1ccc(-n3c(C)nc4ccccc4c3=O)cc1)N=C[C@@H]1CCCN1C2=O | 0.168 µM | 0.462 µM
CC(C)COCC(CN(Cc1ccccc1)c1ccccc1)N1CCCC1 (configuration not stated) | 1.82 µM | 6.56 µM
COc1ccccc1N1CCN(CCc2c[nH]c3cc4c(cc23)OCO4)CC1 | 15.8 µM | 44.5 µM
OC(CNCC1CCCO1)Cn1c2ccc(Cl)cc2c2cc(Cl)ccc21 (configuration not stated) | 1.65 µM | 3.2 µM
CCN1C(=O)N(c2ccccc2)C2NC(=S)N(/N=C/C=C/c3ccccc3)C21 (configuration not stated) | 0.347 µM | > 100 µM
CC(=O)c1cccc(Nc2nc3ccc(Cl)cc3c3[nH]c4ccccc4c23)c1 | 2.84 µM | 96.8 µM
COc1ccc(/C=C(\C#N)n2nnc3ccccc32)cc1 | 0.272 µM | 4.1 µM
COC(=O)C1CCCN1C(=O)[C@@H]1CCCN1C(=O)[C@H](Cc1c[nH]c2ccccc12)NC(=S)Nc1cc(C(F)(F)F)cc(C(F)(F)F)c1 (some centres not stated) | 1.78 µM | 4.64 µM
CC(=C(c1ccc(OCCN2CCCC2)cc1)c1ccc(OCCN2CCCC2)cc1)c1ccc(Cl)cc1 | 2.37 µM | 5.01 µM

— PubChem BioAssay (NCI)
